Laboratory results reported in article PMC6856162 (2019).

Tests used:
[1] = tested on: (5′CAG/3′GAC)x6; AAx6; AA × 6 (RNA, repeat) GGGAGAGGGUUUAAUCAGCAGCAGCAGCAGCAGUACGAAAGUACAGCAGCAGCAGCAGCAGAUUGGAUCCGCAAGG; assay: UV melting; settings: Na+ 10 mM Na2HPO4 + 0.1 M NaCl (melting buffer not given; assumed same as CD/ITC buffer, which also has 50 mM EDTA); derived from two Tm (51.8, 57.9); D/N 2.0; per base
[2] = tested on: (5′CAG/3′GAC)x6; AAx6; AA × 6 (RNA, repeat) GGGAGAGGGUUUAAUCAGCAGCAGCAGCAGCAGUACGAAAGUACAGCAGCAGCAGCAGCAGAUUGGAUCCGCAAGG; assay: ITC; settings: 0.1 M NaCl; 10 mM Na2HPO4, EDTA, pH 7.2; two-site fit; nanomolar range stated
[3] = tested on: (5′CAG/3′GAC)x6; AAx6; AA × 6 (RNA, repeat) GGGAGAGGGUUUAAUCAGCAGCAGCAGCAGCAGUACGAAAGUACAGCAGCAGCAGCAGCAGAUUGGAUCCGCAAGG; assay: fluorescence titration; settings: room temperature; two-site fit
[4] = tested on: 5′r(CCGCAGCGG)3′ (RNA, mismatch bulge abasic) CCGCAGCGG; assay: 1D and 2D NMR titration; settings: 298 K; D/N 0.0 to 2.0

Structure (SMILES): Cc1cc2ccccc2nc1-c1ccccc1F
- dTm [1]: 6.1 °C
- binding [2]: yes
- binding [3]: yes
- binding [4]: yes
